According to publication PMC5301048, “Selection and early clinical evaluation of the brain‐penetrant 11β‐hydroxysteroid dehydrogenase type 1 (11β‐HSD1) inhibitor UE2343 (Xanamem™)” (British Journal of Pharmacology, 2017):
pIC50: −log10 of the molar value. Like-named read-outs stand apart in the source and are kept apart here.

Columns and labels:
[1] = target: T1, CYP2C9 (Homo sapiens, UniProt P11712); test: Cytochrome P450 inhibition, CYP2C9; format: in vitro ADME; settings: human liver microsomes; read-out: CYP450 isoform 2C9 IC50
T1 construct: tissue Cyprotex Discovery Limited; host or cells: human liver microsomes
Method: (§1) Testing was performed by Cyprotex Discovery Limited, Cheshire, UK. Six test compound concentrations (0.4, 1, 4, 10, 40 and 100 μM; final DMSO concentration 0.25%, final microsome concentration 0.25 mg·mL^−1) were either pre‐incubated for 30 min in the absence and presence of NADPH or underwent a 0 min pre‐incubation with human liver microsomes. At the end of the pre‐incubation period, the probe substrate for each cytochrome P450 (CYP450) isoform (30 μM) and NADPH (1 mM) were then added (final DMSO concentration 0.3%), and the samples were incubated for 5 min at 37°C. Probe substrates were as follows: 1A2 – phenacetin, 2C9 – diclofenac, 2C19 – mephenytoin, 2D6 – dextromethorphan, 3A4 – midazolam and testosterone. Samples were subjected to LC–MS/MS analysis to determine metabolite concentrations. A decrease in the formation of the metabolite compared with vehicle control was used to calculate an IC50 value (test compound concentration which produces 50% inhibition) for each experimental condition.

[2] = Plasma protein binding, rat plasma; format: in vitro ADME; settings: mean ± SD [n]
[3] = Microsomal stability, human liver microsomes; format: in vitro ADME; settings: mean ± SD [n]
Method: (§2) Microsomal stability was determined using pooled human, rat or dog liver microsomes according to the method described in WO2011135276 (Webster et al., 2011a).

[4] = Multiple ascending dose study, pharmacokinetics; format: in vivo; settings: human; for AUC0–12h / Ae(0–12h) (%) / Ae(0–12h), amount excreted in urine / Oral clearance: mean (CV%); for estimated maximal CSF concentration / estimated mean CSF nadir at steady state (Cmin): calculated from plasma levels and CSF:plasma ratio; for Tmax / Cmax / half-life: plasma, oral
Method: (§3) A double‐blind, randomized, placebo‐controlled multiple ascending dose study was carried out at Linear Clinical Research Ltd, Nedlands, Australia. Each cohort consisted of eight healthy male subjects. Each subject received UE2343 or placebo twice daily (b.i.d ) (12 hourly) in the fed state for 9 days (Day 1 to Day 9) and once on the morning of Day 10 (19 doses in total). Dose cohorts were 10, 20 and 35 mg. Dose escalation and selection was dependent upon satisfactory review of the blinded safety (up to Day 17 ± 2) and plasma pharmacokinetics (up to Day 12) data from the preceding cohort. Safety, pharmacokinetic and pharmacodynamic assessments were made at pre‐determined time‐points during each part of the study.
(§4) Laboratory evaluation of clinical safety parameters was carried out using standard validated methods. Measurement of plasma pharmacodynamic markers [adrenocorticotropic hormone (ACTH), cortisol, 4‐androstenedione, testosterone and dehydroepiandrosterone sulphate (DHEA‐s)] was carried out using commercially available kits. Each method was fully validated prior to analysis. Urinary steroid metabolites were measured according to established methods (Boonen et al., 2013). UE2343 levels in plasma, urine and CSF was determined by LC–MS/MS using fully validated methods.
(§5) The data and statistical analysis comply with the recommendations on experimental design and analysis in pharmacology (Curtis et al., 2015). Levels of probability, P < 0.05 were deemed to constitute the threshold for statistical significance. Pharmacokinetic parameters, except Tmax (time of maximum observed drug concentration), are given as mean ± coefficient of variation (CV%). Tmax is given as median ± range. For each of the pharmacodynamic parameters [ACTH, cortisol, adrenal androgens, tetrahydrocortisols (THFs)/tetrahydrocortisone (THE) ratio], the maximum % change from baseline for each subject was subjected to ANOVA. For selected data, an additional covariate factor for the baseline was also included in the ANOVA/analysis of covariance (ANCOVA) model. Associated P‐values <0.05 for each comparison have been presented.

[5] = Microsomal stability, rat liver microsomes; format: in vitro ADME; settings: mean ± SD [n]
Method: as §2

[6] = Plasma protein binding, human plasma; format: in vitro ADME
Method: Plasma protein binding was determined using pooled human plasma according to the method described in WO2011135276 (Webster et al., 2011a).

[7] = target: T2, CYP2C19 (Homo sapiens, UniProt P33261); test: Cytochrome P450 inhibition, CYP2C19; format: in vitro ADME; settings: human liver microsomes; read-out: CYP450 isoform 2C19 IC50
T2 construct: tissue Cyprotex Discovery Limited; host or cells: human liver microsomes
Method: as §1

[8] = target: T3, CYP3A4 (Homo sapiens, UniProt P08684); test: Cytochrome P450 inhibition, CYP3A4; format: in vitro ADME; settings: human liver microsomes; read-out: CYP450 isoform 3A4 IC50
T3 construct: tissue Cyprotex Discovery Limited; host or cells: human liver microsomes
Method: as §1

[9] = Microsomal stability, dog liver microsomes; format: in vitro ADME; settings: mean ± SD [n]
Method: as §2

[10] = tested on: HPA axis hormones and steroids; test: Multiple ascending dose study, HPA axis hormones and steroids; format: in vivo; settings: human, not significant vs placebo
Method: as §3, §4
as §5, with “Associated P‐values <0.05 for each comparison have been presented.” left out

[11] = target: T4, CYP2D6 (Homo sapiens, UniProt P10635); test: Cytochrome P450 inhibition, CYP2D6; format: in vitro ADME; settings: human liver microsomes; read-out: CYP450 isoform 2D6 IC50
T4 construct: tissue Cyprotex Discovery Limited; host or cells: human liver microsomes
Method: as §1

T1 sequence (P11712 whole entry, canonical isoform): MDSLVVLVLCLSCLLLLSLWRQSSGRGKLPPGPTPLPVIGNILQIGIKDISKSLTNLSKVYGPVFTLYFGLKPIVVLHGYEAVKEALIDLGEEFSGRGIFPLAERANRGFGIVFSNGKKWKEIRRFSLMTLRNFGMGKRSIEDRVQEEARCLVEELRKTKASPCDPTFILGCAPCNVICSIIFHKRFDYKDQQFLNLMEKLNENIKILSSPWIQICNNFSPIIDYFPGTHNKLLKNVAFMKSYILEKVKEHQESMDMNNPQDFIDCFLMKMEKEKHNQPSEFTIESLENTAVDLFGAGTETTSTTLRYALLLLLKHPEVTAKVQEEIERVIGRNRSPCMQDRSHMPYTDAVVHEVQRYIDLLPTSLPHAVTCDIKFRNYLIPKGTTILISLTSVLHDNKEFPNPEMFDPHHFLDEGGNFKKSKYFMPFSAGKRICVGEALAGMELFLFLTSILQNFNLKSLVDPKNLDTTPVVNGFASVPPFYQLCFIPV
T3 sequence (P08684 whole entry, canonical isoform): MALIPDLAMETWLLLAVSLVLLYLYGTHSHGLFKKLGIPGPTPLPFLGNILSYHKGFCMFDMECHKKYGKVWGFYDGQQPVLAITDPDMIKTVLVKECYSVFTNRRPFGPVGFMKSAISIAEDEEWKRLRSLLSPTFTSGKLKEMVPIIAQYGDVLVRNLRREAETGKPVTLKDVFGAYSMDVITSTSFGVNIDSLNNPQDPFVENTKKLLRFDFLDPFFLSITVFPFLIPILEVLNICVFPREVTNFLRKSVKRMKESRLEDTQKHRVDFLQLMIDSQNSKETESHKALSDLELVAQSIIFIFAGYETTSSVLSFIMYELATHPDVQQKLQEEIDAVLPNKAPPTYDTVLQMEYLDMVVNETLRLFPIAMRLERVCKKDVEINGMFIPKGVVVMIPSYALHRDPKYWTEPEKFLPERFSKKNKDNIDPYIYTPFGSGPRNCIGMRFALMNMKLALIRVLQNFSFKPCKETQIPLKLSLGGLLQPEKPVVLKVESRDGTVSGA
T2 sequence (P33261 whole entry, canonical isoform): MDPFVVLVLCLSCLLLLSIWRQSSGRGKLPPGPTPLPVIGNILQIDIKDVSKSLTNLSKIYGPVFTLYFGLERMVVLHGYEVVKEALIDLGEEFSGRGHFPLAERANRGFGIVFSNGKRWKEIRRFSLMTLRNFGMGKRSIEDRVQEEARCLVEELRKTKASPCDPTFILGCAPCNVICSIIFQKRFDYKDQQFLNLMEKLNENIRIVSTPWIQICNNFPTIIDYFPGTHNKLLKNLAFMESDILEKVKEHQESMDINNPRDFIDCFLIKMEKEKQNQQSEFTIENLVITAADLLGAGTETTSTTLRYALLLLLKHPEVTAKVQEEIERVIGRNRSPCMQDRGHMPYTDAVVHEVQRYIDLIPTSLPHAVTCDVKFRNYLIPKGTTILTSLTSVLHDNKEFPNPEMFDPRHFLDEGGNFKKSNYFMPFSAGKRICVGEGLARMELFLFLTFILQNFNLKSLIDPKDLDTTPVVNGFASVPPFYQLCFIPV
T4 sequence (P10635 whole entry, canonical isoform): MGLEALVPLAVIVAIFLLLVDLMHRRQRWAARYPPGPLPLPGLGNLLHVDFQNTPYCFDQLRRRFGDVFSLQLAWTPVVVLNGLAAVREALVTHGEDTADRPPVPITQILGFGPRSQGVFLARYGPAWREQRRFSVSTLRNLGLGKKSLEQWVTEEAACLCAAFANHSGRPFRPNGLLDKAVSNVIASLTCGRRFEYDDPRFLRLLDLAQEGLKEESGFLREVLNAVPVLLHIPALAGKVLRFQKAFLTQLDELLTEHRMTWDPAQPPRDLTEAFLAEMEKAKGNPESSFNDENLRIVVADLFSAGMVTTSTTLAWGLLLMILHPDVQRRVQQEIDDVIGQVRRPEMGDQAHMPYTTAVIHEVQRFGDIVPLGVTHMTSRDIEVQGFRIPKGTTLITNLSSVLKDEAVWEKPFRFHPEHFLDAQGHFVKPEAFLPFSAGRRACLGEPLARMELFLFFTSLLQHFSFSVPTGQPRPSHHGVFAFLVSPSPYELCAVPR

## O=C(c1csc(-c2cn[nH]c2)c1)N1C2CCC1CC(O)(c1ncccn1)C2 (stereo not shown) [compound 4]
[1]
  pIC50: < 4.30
[2]
  Plasma protein binding (% unbound), rat: 26 ± 0 [2] % unbound
[3]
  Liver microsomal stability (% parent at 30 min), human: 99 ± 1 [3] % parent at 30 min
[4]; 10 mg b.i.d, Day 1
  AUC0–12h: 207 (79%) ng^.h·mL^−1
  Ae(0–12h) (%): 0.35 (50%)
  Ae(0–12h), amount excreted in urine: 34.6 (50%) μg
[4]; 10 mg b.i.d, Day 10
  AUC0–12h: 1917 (66%) ng^.h·mL^−1
  Ae(0–12h) (%): 4.08 (46%)
  Ae(0–12h), amount excreted in urine: 408 (46%) μg
  Oral clearance: 7.24 (60%) L·h^−1
[4]; 10 mg b.i.d
  estimated maximal CSF concentration: 20 ng/mL
  estimated mean CSF nadir at steady state (Cmin): 13 ng/mL
[4]; 20 mg b.i.d, Day 1
  AUC0–12h: 623 (69%) ng^.h·mL^−1
  Ae(0–12h) (%): 0.54 (92%)
  Ae(0–12h), amount excreted in urine: 107 (92%) μg
[4]; 20 mg b.i.d, Day 10
  AUC0–12h: 3175 (30%) ng^.h·mL^−1
  Ae(0–12h) (%): 3.22 (38%)
  Ae(0–12h), amount excreted in urine: 644 (38%) μg
  Oral clearance: 6.85 (33%) L·h^−1
[4]; 20 mg b.i.d
  estimated maximal CSF concentration: 34 ng/mL
  estimated mean CSF nadir at steady state (Cmin): 22 ng/mL
[4]; 35 mg b.i.d, Day 1
  AUC0–12h: 1843 (33%) ng^.h·mL^−1
  Ae(0–12h) (%): 1.03 (46%)
  Ae(0–12h), amount excreted in urine: 362 (46%) μg
[4]; 35 mg b.i.d, Day 10
  AUC0–12h: 7909 (36%) ng^.h·mL^−1
  Ae(0–12h) (%): 3.84 (29%)
  Ae(0–12h), amount excreted in urine: 1345 (29%) μg
  Oral clearance: 5.02 (43%) L·h^−1
[4]; 35 mg b.i.d
  estimated maximal CSF concentration: 81 ng/mL
  estimated mean CSF nadir at steady state (Cmin): 50 ng/mL
[4]; 12 hourly dosing
  day by which steady state was achieved: ≤ 5 days
[4]; at steady state (Day 10)
  fraction excreted in urine in the dosing interval (% Ae): approximately 4%
[4]; highest dose level (35 mg b.i.d), in words
  increase in AUC0–12 from first dose to steady state: greater than fourfold
[4]; single and multiple dosing, range, read-out: plasma Tmax
  Tmax: 3 to 6 h
[4]; male, 10 mg, 10 mg b.i.d, Day 1, mean (CV%)
  Cmax: 29.1 ng/mL
[4]; male, 10 mg, 10 mg b.i.d, Day 1, median (range), read-out: Tmax
  Tmax: 6 h
[4]; male, 10 mg, 10 mg b.i.d, Day 10, mean (CV%)
  Cmax: 207 ng/mL
[4]; male, 10 mg, 10 mg b.i.d, Day 10, mean (CV%), read-out: t 1/2 (converted)
  half-life: 13.8 h
[4]; male, 10 mg, 10 mg b.i.d, Day 10, median (range), read-out: Tmax
  Tmax: 4 h
[4]; male, 20 mg, 20 mg b.i.d, Day 1, mean (CV%)
  Cmax: 89.2 ng/mL
[4]; male, 20 mg, 20 mg b.i.d, Day 1, median (range), read-out: Tmax
  Tmax: 4 h
[4]; male, 20 mg, 20 mg b.i.d, Day 10, mean (CV%)
  Cmax: 365 ng/mL
[4]; male, 20 mg, 20 mg b.i.d, Day 10, mean (CV%), read-out: t 1/2 (converted)
  half-life: 11.2 h
[4]; male, 20 mg, 20 mg b.i.d, Day 10, median (range), read-out: Tmax
  Tmax: 3 h
[4]; male, 35 mg, 35 mg b.i.d, Day 1, mean (CV%)
  Cmax: 268 ng/mL
[4]; male, 35 mg, 35 mg b.i.d, Day 1, median (range), read-out: Tmax
  Tmax: 4 h
[4]; male, 35 mg, 35 mg b.i.d, Day 10, mean (CV%)
  Cmax: 892 ng/mL
[4]; male, 35 mg, 35 mg b.i.d, Day 10, mean (CV%), read-out: t 1/2 (converted)
  half-life: 9.99 h
[4]; male, 35 mg, 35 mg b.i.d, Day 10, median (range), read-out: Tmax
  Tmax: 4 h
[4]; male, 35 mg, multiple doses 10, 20 and 35 mg every 12 h, range across doses, read-out: terminal t 1/2
  half-life: 10 to 14 h
[4]; male, multiple doses, range across doses, read-out: median time to peak concentration following each dose
  Tmax: 4 to 6 h
[5]
  Liver microsomal stability (% parent at 30 min), rat: 74 ± 1 [3] % parent at 30 min
[6]; human plasma, mean ± SD [n]
  Plasma protein binding (% unbound), human: 30 ± 2 [2] % unbound
[6]; human, pooled human plasma, read-out: bound to plasma proteins (converted)
  fraction unbound: 0.3
[7]
  pIC50: 5.77
[8]
  pIC50: < 4.30
[9]
  Liver microsomal stability (% parent at 30 min), dog: 92 ± 5 [3] % parent at 30 min
[10]; 10 mg b.i.d
  mean maximum percentage change in ACTH (from baseline): 222%
[10]; 20 mg b.i.d
  mean maximum percentage change in ACTH (from baseline): 195%
[10]; 35 mg b.i.d
  mean maximum percentage change in ACTH (from baseline): 230%
[11]
  pIC50: < 4.30
